From patent US20230292776A1, “GAS PHASE TREATMENT OF PRODUCE” (priority 2022, published 2023)

Columns and labels:
avocados = assay: Durometer shore (firmness, ripening) of treated avocados; assay type: in vivo, avocado; conditions: for average increase of shore over uninfected and untreated avocados: Example 22
Description: Example 9. The antifungal activity of a range of AITC and carvacrol vapor exposure times was tested against Cg in avocados. To measure the effect of the various treatments on ripening, durometer shore was taken after 7 days of incubation at ambient temperature and high humidity. All samples were wounded by removing the stem and infected by dispensing 1000 Cg spores suspended in 10 μL of water in the wound. The test groups consisted of avocados that were: infected and left untreated on the benchtop; infected and left untreated under a fume hood; exposed to the vapor of 3 mL of AITC in a Petri dish for 24 hours, 48 hours, and 72 hours; and exposed to the vapor of 3 mL of carvacrol in a Petri dish for 72 hours. FIG. 11 quantifies the infection results. […] All exposure times to AITC vapor reduced the incidence of Cg mold compared to the untreated samples. A 24 hour AITC exposure reduced the incidence of Cg mold by 90%. A 48 hour AITC exposure reduced the incidence of Cg mold by 97%. A 72 hour AITC exposure reduced the incidence of Cg mold by 83%.
Example 10. The antifungal activity of a range of AITC vapor exposure times were tested against Cg in avocados. To measure the effect of the various treatments on ripening, durometer shore was taken after 6 days of incubation at ambient temperature and high humidity. All samples were wounded by removing the stem and infected by dispensing 1000 Cg spores suspended in 10 μL of water in each wound. The test groups consisted of avocados that were: infected and left untreated on the benchtop; infected and left untreated in a fume hood; exposed to the vapor of 3 mL of AITC in a Petri dish for 24 hours, 48 hours, and 72 hours. FIG. 13 quantifies the infection results. […] All exposure times to AITC vapor reduced the incidence of Cg mold compared to the untreated samples.
Example 21. The antifungal activity of avocados exposed to AITC vapor and prochloraz was tested against Cg in avocados. To measure the effect of the various treatments on ripening, durometer shore was taken after 5 days of incubation at ambient temperature (about 20° C. to about 25° C.) and high humidity (about 88% relative humidity to about 93% relative humidity). All samples were wounded by removing the stem and infected by dispensing 1000 Cg spores suspended in 10 μL of water in the wound. Exposure to vapor was done by placing the avocados in an airtight container, dispensing AITC onto Whatman filter paper discs, suspending the discs in front of a battery-powered fan, closing the container and incubating the avocados for 30 minutes. After vapor exposure, the avocados were left at ambient temperature, high humidity, and assessed for Cg mold on day 5. Treatment groups consisted of avocados that were: exposed for 30 minutes to the vapor of 125 μL of AITC disposed on a filter paper disc; dipped in a solution of 0.1 g/L of prochloraz and placed to dry on a rack in front of a fan for 30 min; infected and left untreated; and uninfected and untreated. […] To prepare the 0.1 g/L of prochloraz, 10 mg of prochloraz was mixed with 10 mL of ethanol and 90 mL of water. […] A 24 hour AITC exposure reduced the incidence of Cg mold by 90%. […] The mean shore value for the untreated avocados was 28.8 (standard deviation (SD)=10.8). The mean shore value for the infected avocados was 47.3 (SD=11.8). The mean shore value of the positive control, prochloraz treated avocados was 44.3 (SD=14.7). The mean shore value of the AITC treated avocados was 61.1 (SD=10.5).
Durometer Shore Measurement: A Fruit Hardness Tester— HPE III Fff w/Sphere Ø 5.0 mm Test Anvil is used for the measurements. The Operating Procedure is as follows: • 1) At room temperature and 1 atm pressure, switch on the measuring device and press the hull or sleeve against the specimen so that the contact surface of the pressure plate rests on the fruit. […]

Botrytis cinerea (Bc) = assay: Antifungal activity of AITC vapor and coating agent against Botrytis cinerea (Bc) in strawberries; assay type: in vivo; conditions: Example 17; suspended strawberries; day 5
[1] = test system: non-Pd latent fungal infection; assay: AITC vapor against non-Pd latent fungal infection in mandarins; assay type: in vivo; conditions: Example 5; 125 μL (730 ppm), 1 hour exposure
Description: Example 5. The antifungal activity of a range of AITC vapor exposure times was tested to determine the effects against Pd in mandarins. All samples were wounded by puncturing with a screw. Mandarins were infected by dispensing 1000 Pd spores suspended in 10 μL of water in the wound. The fruit was then placed in an airtight container, 125 μL of AITC was dispensed onto a Whatman filter paper disc, the disc suspended in front of a battery-powered fan, and the container closed for 15 minutes to 2 hours. The test groups were then left at ambient temperature, high humidity, and assessed for Pd mold after 6 days. The test groups consisted of mandarins that were: uninfected and untreated; infected and untreated; infected and treated with 0.5 g/L imazalil; infected, treated with 125 μL of AITC on the filter paper, and exposed to the vapor for 15 minutes, 30 minutes, 1 hour, and 2 hours. […] A non-Pd latent fungal infection confounded results for the imazalil control and the 1 hour AITC treatment. […] A 30 minute exposure to an AITC vapor concentration of 730 ppm appeared to either substantially prevent mold infection or reduce the severity of infection. Longer exposure time increased the antifungal efficacy. […] Longer exposure times were effective at largely eliminating these pathogens.

With `C=CCN=C=S` [AITC, allyl isothiocyanate] the “average increase of durometer shore over untreated avocados” value (avocados; Example 9, all AITC treatments (3 mL; 24, 48, 72 hours), after 7 days, P value<0.0001) was 20.3 shore, the “average increase of durometer shore over infected avocados” value (avocados; Example 10, all AITC treatments (3 mL; 24, 48, 72 hours), after 6 days, P value<0.005) was 15.4 shore and the “shore higher than the untreated avocados” value (avocados; Example 21, 125 μL, 30 minutes, after 5 days) was “more than 30 shore”. For the same molecule, the mean shore value (avocados; Example 21, Cg-infected avocados, AITC 125 μL 30 minutes, prochloraz 0.1 g/L dip, after 5 days) was 61.1 (SD=10.5), the “average increase of shore over uninfected and untreated avocados” value (avocados; 250 μL, 30 minutes, after 5 days, P value=0.0016) was “about 10 shore” and the “average increase of shore over uninfected and untreated avocados” value (avocados; 500 μL, 30 minutes, after 5 days, P value<0.0001) was “about 28.5 shore”. For the same molecule, the “average increase of shore over untreated avocados” value (avocados; Example 23, 500 μL AITC vapor, coating agent 40 g/L dip, after 11 days, P value<0.0001) was 22.5 shore, the “reduction in incidence of mold versus untreated test group” value (Botrytis cinerea (Bc)) was “over 80%” and the “response of latent pathogens to AITC vapor” value [1] was “substantially resistant to AITC vapor”.
